Test system: learning and memory process of mouse (memory and learning impediment induced by scopolamine)
Assay: Step-down platform electrical-shock avoidance test of learning and memory (RT, EN) in scopolamine-treated mice
Type: in vivo
Details: for Memory Results EN / Learning Results EN / Memory Results RT / Learning Results RT: scopolamine 1 mg/kg; for Memory Results EN / Memory Results RT: memory test 24 hrs later; for Learning Results EN / Learning Results RT: training trial
Protocol: The pharmacological tests of memory-enhancing peptide in this invention have been performed as following: the animals have been divided into three groups: drug administration group, control group and model group, with each group administrated with memory-enhancing peptide, saline and scopolamine respectively. In the test, the groups except control group were injected with scopolamine after the administration of medicine about 50 min., 10 min. later, the training began. First, the animals will be put into reaction box for 3 min. before each trails to familiarize them with the environment. Then, the reaction box are charged with 36V alternating current. When the animal subjects to electrical shock, it will jump up to the central platform to avoid harmful stimulation as a normal response. Most of animals may be return to the copper curdles twice or even more times, but they will jump back to the platform swiftly as the results of electrical shock. Each test trail will be performed for 5 min. and two following indices will be used to represent the learning results: (I) the number of total error (EN) during the whole training period; (2) the reaction time (RT) for the first returning to the copper curdle in the trail. The trails will repeat again 24 hrs later as memory test.

C/C=C1\[C@H]2C=C(C)C[C@]1(N)c1ccc(=O)[nH]c1C2 [Huperzine A, reference compound]
Memory Results EN (Huperzine A 100 μg/kg): 0.9 | Learning Results EN (Huperzine A 100 μg/kg, number of total errors): 1.3

PyroGlu—Asn—Cys(S—Bu^t)—Pro—Arg [MEP-531]
Effect on memory and learning impediment induced by scopolamine, compared with model group (0.5 μg and 1 μg/kg, longer incubation period and lesser error numbers, P<0.01 vs model group): obviously improve the memory and learning impediment induced by scopolamine | Effect on scopolamine-induced memory and learning impediment compared with Huperzine A (0.5 μg/kg and 1 μg/kg versus Huperzine A 100 μg/kg): better effects than Huperzine A | Memory Results EN (drug dosage 0.25 μg/kg): 0.9 | Memory Results RT (drug dosage 0.25 μg/kg): 197.6 s | Learning Results EN (drug dosage 0.25 μg/kg): 0.3 | Learning Results RT (drug dosage 0.25 μg/kg): 78.8 s | Memory Results EN (drug dosage 0.5 μg/kg): 0.5 | Memory Results RT (drug dosage 0.5 μg/kg): 245.5 s | Learning Results EN (drug dosage 0.5 μg/kg): 0.2 | Learning Results RT (drug dosage 0.5 μg/kg): 241.6 s | Memory Results EN (drug dosage 1 μg/kg): 0.3 | Memory Results RT (drug dosage 1 μg/kg): 282.8 s | Learning Results EN (drug dosage 1 μg/kg): 0.3 | Learning Results RT (drug dosage 1 μg/kg): 267.6 s | Overall effect on memory and learning impediment induced by scopolamine (results of Table 1) (summary statement, no dose given): remarkably ameliorate the memory and learning impediment induced by scopolamine

Source: US20040116656A1, “Memory-enhancing peptides and the use thereof” (priority 2000, published 2004)
